# Literature values in paper PMC3907537, “Evaluation of the Endothelin Receptor Antagonists Ambrisentan, Bosentan, Macitentan, and Sitaxsentan as Hepatobiliary Transporter Inhibitors and Substrates in Sandwich-Cultured Human Hepatocytes” (PLoS ONE, 2014).
# Test system: BSEP
# Design: method as in PMID 11309550, PMID 20829430, PMID 17061295, PMID 23956101
# Settings: read-out: BSEP inhibition values previously reported (IC50); cited from earlier work
smiles,measurement,value
COc1ccccc1Oc1c(NS(=O)(=O)c2ccc(C(C)(C)C)cc2)nc(-c2ncccn2)nc1OCCO [bosentan],IC50,12 to 76.8 µM
